Measurements: article PMC5642580, “Calyxin Y sensitizes cisplatin-sensitive and resistant hepatocellular carcinoma cells to cisplatin through apoptotic and autophagic cell death via SCF βTrCP-mediated eEF2K degradation” (Oncotarget, 2017)

Experiments:
HepG2/CDDP cells [1] = assay: MTT cell viability assay; format: cell-based, human
Description: Human hepatocellular carcinoma HepG2 cells were purchased from Cell Bank of Shanghai Institute of Biochemistry and Cell Biology, Chinese Academy of Sciences (Shanghai, China). mtrDNA sequence analysis was done by the cell bank to confirm the species and cells were tested free from mycoplasma. CDDP-selected drug-resistant HepG2/CDDP cells were derived from HepG2 cells by utilizing serial passage in the presence of increasing CDDP concentrations. Briefly, cells were treated with CDDP (1 μM) for 72 h. The media and dead cells were removed, and cells were allowed to recover for a further 72 h and then were treated with a higher concentration of CDDP. This development period was carried out for approximately 6 months, and finally, we obtained the HepG2/CDDP cells. HepG2/CDDP cells were then continuously maintained in the presence of 20 μM CDDP for a further 3 months to maintain stability. All cells were cultured in DMEM media containing 10% fetal bovine serum and incubated with 100 U/ml penicillin and 100 μg/ml streptomycin (Thermo) at 37 °C under an atmosphere of 95% air and 5% CO2.
HepG2 and HepG2/CDDP cells were plated in 96-well plates at a density of 5000 cells in 200 μl medium per well and incubated overnight. The cells were treated with calyxin Y and/or CDDP for 24 h, 48 or 72 h. The cell viability of HepG2 and HepG2/CDDP cells was measured by MTT assay as described previously.

[2] = Hematological biochemical parameters of nude mice bearing HepG2/CDDP xenograft; format: in vivo, BALB/c nu/nu mice; details: calyxin Y 20 mg/kg i.p. every other day and/or CDDP 4 mg/kg i.p. once per week, 19 days; mean ± S.D., n = 3
Description: (§1) All animal procedures were performed according to comply with the ARRIVE guidelines, the U.K. Animals (Scientific Procedures) Act, 1986 and associated guidelines. The protocol was approved by the Institutional Animal Care and Use Committee at China Pharmaceutical University. Four-week-old BALB/c nu/nu mice (18-22 g) purchased from Shanghai Laboratory Animal Center of Chinese Academy of Sciences (Shanghai, China) were used for in vivo experiments. Animals were housed at a constant room temperature with a 12 h:12 h light/dark cycle and were provided a standard rodent diet and water. HepG2/CDDP cells were harvested and injected subcutaneously into the right flank (1 × 10^7 cells in 150 μl of cold PBS). […] (1) control group, mice were injected intraperitoneally (i.p.) with 10% DMSO + 90% normal saline (n = 6); (2) […] group: mice were injected i.p. with 20 mg/kg […] every other day (n = 6); (3) CDDP group: mice were injected i.p. with 4 mg/kg CDDP once per week (n = 6); (4) […] + CDDP group: mice were injected i.p. with 20 mg/kg […] every other day and 4 mg/kg CDDP once per week (n = 6). The tumor volume was determined by measuring length (l) and width (w) and calculating volume (V = 0.5 × l × w^2) at the indicated time points. At the end of treatment, the animals were sacrificed, and the tumors were removed and weighed for use in histology and protein expression studies. Using a standard saphenous vein blood collection technique, blood was drawn for hematologic and serum biochemistry analyses.

HepG2/CDDP cells [3] = assay: Western blot of cleaved caspase-3/7/PARP; format: cell-based, human; details: CDDP 10 µM with or without calyxin Y 20 µM, 24 h
Text: The procedures for Western blotting were described previously.

HepG2 cells [4] = assay: Annexin V/7-AAD staining assay (flow cytometry); format: cell-based, human; details: CDDP 10 µM with or without calyxin Y 20 µM, 24 h
Description: HepG2 and HepG2/CDDP cells were plated on 6-well plates and incubated overnight. Next, the cells were treated with […] and/or CDDP for 24 h. Cells in 200 μl of binding buffer were stained with 5 μl of Annexin V-Alexa Fluor 647 ([…] Biotech Co., Ltd., China) and 5 μl of 7-AAD at room temperature for 15 min. The cells were then analyzed by flow cytometry with a BD Accuri C6 flow cytometer (Becton & Dickinson Company, Franklin Lakes, NJ, USA). The cells undergoing apoptosis are Annexin V positive.

[5] = Hematological parameters of nude mice bearing HepG2/CDDP xenograft; format: in vivo, BALB/c nu/nu mice; details: calyxin Y 20 mg/kg i.p. every other day and/or CDDP 4 mg/kg i.p. once per week, 19 days; mean ± S.D., n = 3
Description: as §1

HepG2 cells [6] = assay: MTT cell viability assay; format: cell-based, human; details: 24 h
Description: HepG2 and HepG2/CDDP cells were plated in 96-well plates at a density of 5000 cells in 200 μl medium per well and incubated overnight. The cells were treated with […] and/or CDDP for 24 h, 48 or 72 h. The cell viability of HepG2 and HepG2/CDDP cells was measured by MTT assay as described previously.

[7] = tested on: eEF2K mRNA in HepG2 cells; details: calyxin Y 5, 10, 20 µM, 24 h
Description: (§2) Total RNA samples from HepG2 and HepG2/CDDP cells were extracted using RNAiso Plus reagent following the manufacturer’s protocols. RNA (1 μg) was reverse-transcribed using a ReverTra Ace qPCR RT-Kit (Toyobo Life Science, Osaka, Japan) in a MyCycler PCR system (BioRad Laboratories, Hercules, CA). SYBR Green PCR Master Mix was purchased from Toyobo Life Science. The 2^−ΔΔCT cycle threshold method was used for the calculation of relative differences in mRNA abundance with a LightCycler 480 qPCR System (Roche Molecular Biochemicals, Mannheim, Germany). Data were normalized to the expression of β-Actin. The results of qRT-PCR were expressed as fold-changes. The normalized value of the target mRNA of the control group is arbitrarily presented as 100. The pairs of primer for PCR were listed below: • eEF2K: (sense) 5′-[…]-3′; • eEF2K: (antisense) 5′-[…]-3′. • β-Actin: (sense) 5′-[…] CAATG-3′; • β-Actin: (antisense) 5′-[…]-3′.

[8] = tested on: eEF2K mRNA in HepG2/CDDP cells; details: calyxin Y 5, 10, 20 µM, 24 h
Description: as §2

eEF2K in HepG2 cells = details: calyxin Y 5, 10, 20 µM, 24 h
Description: (§3) HepG2 and HepG2/CDDP cells were lysed in western blotting lysis buffer and centrifuged at 12000 g for 10 min. The procedures for Western blotting were described previously.

[9] = tested on: eEF2K in HepG2/CDDP cells; details: calyxin Y 5, 10, 20 µM, 24 h
Description: as §3

Compound	Alanine aminotransferase [2] [U/L]	Alkaline phosphatase [2] [U/L]	Aspartate aminotransferase [2] [U/L]	Hematocrit [5] [%]	Hemoglobin [5] [g/L]	Lymphocytes [5]	Mean corpuscular hemoglobin [5] [pg]	Mean corpuscular volume [5] [fL]	Platelet counts [5]	Red blood cells [5]	White blood cells [5]	also measured
[NH2][Pt]([NH2])([Cl])[Cl] [CDDP, cisplatin]	40.2 ± 1.2	125.4 ± 0.91	158.5 ± 5.1	44.3 ± 2.8	126.3 ± 4.7	8.9 ± 1.9 10^9/L	13.4 ± 0.29	47.7 ± 3.5	562.1 ± 19.2 10^9/L	9.6 ± 0.67 10^12/L	9.9 ± 0.39 10^9/L	IC50 (HepG2/CDDP cells [1]; HepG2/CDDP cells, 24 h, MTT): 95.4 µM; resistance index (HepG2/CDDP cells [1]; HepG2/CDDP vs HepG2, IC50 at 24 h): ~6 fold; cleavage of caspase-7, caspase-3 and PARP (HepG2/CDDP cells [3]): did not cause the cleavage; apoptosis (AV+ cells) (HepG2 cells [4]): 31%; IC50 (HepG2 cells [6]; MTT): 16.7 µM
Calyxin Y	37.5 ± 1.4	115.4 ± 2.7	129.3 ± 3.5	44.1 ± 1.4	138.4 ± 7.0	18.5 ± 1.8 10^9/L	14.5 ± 0.13	47.3 ± 3.3	588.5 ± 80.5 10^9/L	11.0 ± 0.27 10^12/L	15.2 ± 2.2 10^9/L	cell viability (HepG2/CDDP cells [1]; HepG2/CDDP cells, calyxin Y 10, 20, 30, 40 µM, 24 h): inhibited the viability of HepG2/CDDP cells as much as it did that of HepG2 cells in a concentration-dependent manner; eEF2K mRNA levels [7]: not significantly changed; eEF2K mRNA levels [8]: not significantly changed; eEF2K expression (eEF2K in HepG2 cells): reduced eEF2K expression in a dose-dependent manner; eEF2K expression [9]: reduced eEF2K expression in a dose-dependent manner; cell viability (HepG2 cells [6]; calyxin Y 10, 20, 30, 40 µM): concentration-dependent manner
